Measured values: US12396977B2, “Composition for treating degenerative brain diseases, containing 2-pentylfuran as active ingredient” (DAEGU GYEONGBUK INSTITUTE OF SCIENCE AND TECHNOLOGY, priority 2019, dated 2025)

Experiments:
primary microglia [1] = experiment: Cytokine mRNA (qRT-PCR) and protein (ELISA) in microglia; assay type: cell-based, mouse; details: then 2-PF
Protocol: In the present example, microglia or astrocytes were primarily extracted from the cerebral cortex of E18.5 mouse embryos (Tamashiro et al., 2012) and then cultured as in Example 1. More specifically, the cortex of mouse embryos was collected and then stored in a cold supernatant (#14170-112; Thermo Fisher Scientific) and pretreated at 37° C. in a 0.25% trypsin solution (#15090-046; Thermo Fisher Scientific) for 20 minutes. Then, cells were plated in a minimal nutrient medium supplemented with 10% FBS (#SH30919.03; Hyclone), 2 mM L-glutamine (#25030-081; Thermo Fisher Scientific), 0.04% glucose (#G7021; Sigma Aldrich), and 1% penicillin/streptomycin (#15140-122; Thermo Fisher Scientific), and then filtered using a 40 μm strainer (#352340; Thermo Fisher Scientific). Microglia were plated at a density of 1.2×10^7 cells in a T75 flask coated with poly-D-lysine (#P7280; Sigma Aldrich). After 2 hours, the mixture was transferred to a Dulbecco's modified eagle medium (DMEM; #SH30243.01; Hyclone), and the medium was replaced every 3 days for 2 weeks. In order to separate the microglia from this mixed solution, first, the mixed solution was shaken at 37° C. at 150 rpm for 2 hours, then the mixed solution containing microglia was separately extracted from the top and transferred, and then the microglia were isolated by centrifugation at 1300 rpm at room temperature for 5 minutes. The isolated microglia were transferred to a culture medium. After the microglia were transferred, the microglia were completely removed by shaking the remaining mixed solution at 160 rpm for 1 day for culturing. Then, astrocytes were isolated by treatment with 0.25% trypsin and again cultured in a T75 flask for 4 days for collection. The purity of the collected microglia and astrocytes was evaluated by qRT-PCR analysis and by immunocytochemistry using Iba-1 and Gfap, which are a marker gene and a protein, respectively.
For the measurement of mRNA, RNA was isolated from red blood cells, microglia, astrocytes, Hana3A cells, or cerebral cortical cells using the MagNa Lyser (Roche Molecular Diagnostics) using TRIzol reagent (Invitrogen, Carlsbad, CA.) according to the manufacturer's protocol. Then, cDNA was generated through reverse transcription using the isolated mRNA (using PrimeScript™ 1st str and cDNA Synthesis kit—#6110; Takara Bio Inc). This process was quantitatively measured in real time through quantitative real-time-PCR (using LightCycler® 480 SYBR Green I Master). The measured values were calculated using the 2-ΔΔCt method.
The expression levels of Tnf, il6, and Il1b cytokines secreted from microglia were measured according to the manufacturer's protocol. More specifically, the expression levels were measured by ELISA 24 hours after treatment with 2-PF or a cell supernatant. […]

Olfr110 = target: T1, Olfr110 (Mus musculus, UniProt A2RT31); experiment: Luciferase assay in Hana3A cells, Olfr110; assay type: cell-based; details: for reactivity of Olfr110 (relative luciferase activity): Hana3A cells
T1 construct: Full-length odorant receptor genes from mouse and human genomic DNA were amplified using appropriate primers; Lucy (N); Flag (N); Rho (N); expressed in transfected cells; host or cells: Hana3A cells, co-transfected with RTP1S, pCRELuc and pRL-SV40
T1 sequence (A2RT31 1-317): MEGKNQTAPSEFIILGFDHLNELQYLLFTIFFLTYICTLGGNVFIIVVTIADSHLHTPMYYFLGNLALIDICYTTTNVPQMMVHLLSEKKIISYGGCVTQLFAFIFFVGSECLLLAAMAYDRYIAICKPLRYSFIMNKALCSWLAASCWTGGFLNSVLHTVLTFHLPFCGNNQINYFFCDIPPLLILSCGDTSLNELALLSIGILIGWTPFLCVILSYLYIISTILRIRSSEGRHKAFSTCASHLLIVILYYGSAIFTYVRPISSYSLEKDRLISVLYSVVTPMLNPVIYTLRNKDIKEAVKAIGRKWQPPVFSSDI
Protocol: (§1) Next, Hana3A cells were transfected with RTP1S, and their location and presence on the cell membrane were confirmed as previously described (Behrens et al., 2009; Zhuang and Matsunami, 2008). Such transfection was performed using Lipofectamine 2000 (#11668-019; Thermo Fisher Scientific) according to the manufacturer's instructions. More specifically, the transfected cells were grown on a coverslip (#0101050; Marienfeld) coated with poly D lysine (10 μg/ml; #P7280; Sigma Aldrich). Next, the cells were washed with a warm PBS solution and cooled with ice for 30 minutes to block endocytosis. […] The cells were then incubated with normal horse serum (#008-000-121; Jackson ImmunoResearch) at room temperature for 1 hour. […] After being washed with PBS, the cells were treated with a Cy3-conjugated donkey anti-mouse antibody (1:1,000; #715-165-150; Jackson ImmunoResearch), an Alexa488-conjugated donkey anti-mouse antibody (1:1,000; #715-545-150; Jackson ImmunoResearch), or a Cy3-conjugated donkey anti-rabbit antibody (1:1,000; #711-165-152; Jackson ImmunoResearch) at room temperature for 1 hour. The cells were mounted with a Vectashield fluorescent mounting medium containing DAPI (#H-1200; Vector Laboratories). The expression of heterologous odorant receptors was analyzed with a confocal laser scanning microscope LSM700 and ZEN software (Zeiss).
(§2) The Dual-Glo luciferase assay system (#E2940; Promega) was used for odorant receptor ligand screening. More specifically, Hana3A cells were streaked and spread on a white polystyrene 96-well plate (#353296; BD Biosciences) one day before transfection. pCRELuc (1 μg; #219076; Agilent Technologies), pRL-SV40 (1 μg; #E2231; Promega), RTP1S (1 μg), and OR (6 μg; or Mock) vectors were transfected for 24 hours in each plate. Each plate was analyzed using Lipofectamine 2000 (#11668-019; Thermo Fisher Scientific) according to the manufacturer's protocol. Transfected cells were stimulated in CD293 medium (#11913-019; Thermo Fisher Scientific) at 37° C. for 4 hours using diluted odorants at various concentrations. The activity of luciferase was normalized by the activity of Renilla luciferase. The amount of light emitted was measured using a SpectraMax L microplate reader (Molecular Devices).

Olfr111 = experiment: Luciferase assay in Hana3A cells, Olfr111; assay type: cell-based, mouse; details: for reactivity of Olfr111 (relative luciferase activity): Hana3A cells
Protocol: as §1, §2

primary microglia [2] = experiment: Western blot of phosphorylated signalling proteins in primary microglia; assay type: cell-based, mouse; details: inhibitor pre-culture, then 2-PF
Protocol: Cells and tissues were prepared using the T-PER® reagent (#78510; Thermo Fisher Scientific) with protease inhibitors (#04-693-116-001; Roche Molecular Diagnostics), DMSF (Sigma-Aldrich) and lysed using the MagNA Lyser (Roche Molecular Diagnostics). A total protein extract was quantified by the Bradford assay. The sample was dissolved in 7.5% SDS-PAGE or 4 to 20% gradient mini-PROTEIN TGX Precast Gels (#456-1064; Bio-Rad Laboratories), and then blotted onto nitrocellulose membranes (#10600002; GE Healthcare). The membrane was then blocked in 5% skimmed milk powder, TBST, 0.1% TWEEN® 20 (#P9416; Sigma-Aldrich) and Tris-buffered saline for 1 hour, and then incubated with primary antibodies at 4° C. overnight. The antibodies are as follows: Olfr110 (36 kDa; 1:1,000; #ab177327; Abcam), anti rhodopsin (39 kDa; 1:1,000; #MABN15; Millipore), CREB (43 kDa; 1:1,000; #9197; Cell Signaling Technology), phospho-CREB (43 kDa; 1:1,000; #9198; Cell Signaling Technology), ERK (44 kDa; 1:1,000; #sc094; Santa Cruz), phospho-ERK (42, 44 kDa; 1:1,000; #sc-7383; Santa Cruz), phospho-Akt (60 kDa; 1:500; sc-293125; Santa Cruz), phospho-JNK (46, 54 kDa; 1:500; sc-6254; Santa Cruz), phosphor-p38 (38 kDa; 1:1,000; sc-7973; Santa Cruz), or beta-Actin (45 kDa; 1:10,000; #4967; Cell Signaling Technology). Furthermore, an isotype-matched horseradish peroxidase-conjugated secondary antibody was used at 1:100,000 with anti-rabbit in TBST (#711-035-152; Jackson ImmunoResearch) and 1:40,000 with anti-mouse (#715-035-150; Jackson ImmunoResearch) at room temperature for 2 hours. As an immunoreactive protein band, SuperSignal™ West Pico Chemiluminescent Substrate (#34080; Thermo Fisher Scientific) was used.

primary microglia [3] = experiment: Active oxygen (ROS) production in primary microglia; assay type: cell-based, mouse; details: for ROS (active oxygen) generation induced by 2-PF after inhibitor pretreatment: then 2-PF
Protocol: Superoxide concentrations were calculated by measuring the degree of decrease in cytochrome c using a VersaMax microplate reader (Babior et al., 1973). Microglia were cultured on a 96-well plate at a concentration of 1.0×10^5 cells/well, and the microglia were activated by a 10 μM ATP solution containing 2-pentylfuran and cytochrome c, or a solution of Sup mixed with cytochalasin B (5 μM; #C66762; Sigma Aldrich). The resulting ROS concentration was measured by changes in light absorption at 550 nm at intervals of 1 minute for 25 minutes.
Active oxygen levels were measured using 2′,7′-dichlorodihydrofluorescein diacetate (DCF-DA, #D6883; Sigma Aldrich) using a method that had undergone minor modifications from the existing method. (Bae et al., 2001). More specifically, the primary microglia were treated with 10 μM DCF-DA in a 24-well plate (5.0×10^5 cells/well) […] at a temperature of 37° C. for 30 minutes. One plate was treated with 2-PF and one was not. Cells in each well were measured by a flow cytometer (FACS Accuri™ C6; BD Biosciences). MFI was measured in the same manner as described above.

[4] = tested on: Olfr920, Olfr1417, and Olfr99; details: Hana3A cells; MOCK also responded
Protocol: Next, Hana3A cells were transfected with RTP1S, and their location and presence on the cell membrane were confirmed as previously described (Behrens et al., 2009; Zhuang and Matsunami, 2008). Such transfection was performed using Lipofectamine 2000 (#11668-019; Thermo Fisher Scientific) according to the manufacturer's instructions. More specifically, the transfected cells were grown on a coverslip (#0101050; Marienfeld) coated with poly D lysine (10 μg/ml; #P7280; Sigma Aldrich). Next, the cells were washed with a warm PBS solution and cooled with ice for 30 minutes to block endocytosis. […] The cells were then incubated with normal horse serum (#008-000-121; Jackson ImmunoResearch) at room temperature for 1 hour. The resulting cells were incubated with mouse anti rhodopsin (anti-Rho; 1:1,000; #MABN15; Millipore) or rabbit anti Olfr110 (#ab177327; Abcam) at 4° C. overnight. […] The expression of heterologous odorant receptors was analyzed with a confocal laser scanning microscope LSM700 and ZEN software (Zeiss). […] Each plate was analyzed using Lipofectamine 2000 (#11668-019; Thermo Fisher Scientific) according to the manufacturer's protocol. […] The amount of light emitted was measured using a SpectraMax L microplate reader (Molecular Devices).

SMILES: O=S(=O)(NCCNC/C=C/c1ccc(Br)cc1)c1cccc2cnccc12 [H-89]
- Tnf and Il6 cytokine levels induced by 2-PF after inhibitor pretreatment (primary microglia [1]): great decrease

SMILES: CC(C)(C)c1ccco1 [2-t-butylfuran]
- reactivity of Olfr110 (relative luciferase activity) (Olfr110): showed reactivity
- reactivity of Olfr111 (relative luciferase activity) (Olfr111): showed reactivity

SMILES: CCCc1ccco1 [2-propylfuran]
- reactivity of Olfr110 (relative luciferase activity) (Olfr110): showed reactivity
- reactivity of Olfr111 (relative luciferase activity) (Olfr111): showed reactivity

SMILES: COc1cccc(-c2cc(=O)c3ccccc3o2)c1N [pd98059]
- Tnf and Il6 cytokine levels induced by 2-PF after inhibitor pretreatment (primary microglia [1]): relatively less decrease
- CREB and ERK phosphorylation after inhibitor pre-culture and 2-PF (primary microglia [2]): greatly decreased

SMILES: Cc1ccoc1C [2,3-dimethylfuran]
- binding to Olfr110 (Olfr110): do not bind
- binding to Olfr111 (Olfr111): do not bind

SMILES: CCc1ccco1 [2-EF, 2-ethylfuran]
- binding to Olfr110 (Olfr110): do not bind
- mode of action at Olfr110 (Olfr110): competitive inhibitor (antagonist)
- binding to Olfr111 (Olfr111): do not bind
- active oxygen produced by Sup MOI of 100 (primary microglia [3]; 2-EF pretreated at 0, 100, 300, 500 μM): decreased as the concentration of 2-EF increased
- active oxygen produced by Sup MOI 5 plus 500 μM 2-PF (primary microglia [3]; 2-ethylfuran 0, 100, 300, 500 μM simultaneously): the higher the concentration of 2-EF added, the lower the concentration of active oxygen produced

SMILES: CCO [ethanol]
- reactivity of the remaining three receptors (luciferase) [4]: non-specific reaction

SMILES: COc1ccc2c(c1)CC[C@@H]1[C@@H]2CC[C@]2(C)[C@@H](NCCCCCCN3C(=O)C=CC3=O)CC[C@@H]12 [U73122]
- Tnf and Il6 cytokine levels induced by 2-PF after inhibitor pretreatment (primary microglia [1]): relatively less decrease
- ROS (active oxygen) generation induced by 2-PF after inhibitor pretreatment (primary microglia [3]): completely inhibited

SMILES: CCCCc1ccco1 [2-butylfuran]
- reactivity of Olfr110 (relative luciferase activity) (Olfr110): showed reactivity
- reactivity of Olfr111 (relative luciferase activity) (Olfr111): showed reactivity

SMILES: CCCCCCCc1ccco1 [2-heptylfuran]
- binding to Olfr110 (Olfr110): do not bind
- binding to Olfr111 (Olfr111): do not bind

SMILES: CCCCCCc1ccco1 [2-hexylfuran]
- binding to Olfr110 (Olfr110): do not bind
- reactivity of Olfr110 (relative luciferase activity) (Olfr110): showed reactivity
- binding to Olfr111 (Olfr111): do not bind
- reactivity of Olfr111 (relative luciferase activity) (Olfr111): showed reactivity

SMILES: Nc1ncnc2c1ncn2C1CCCO1 (stereo not drawn) [SQ22536]
- Tnf and Il6 cytokine levels induced by 2-PF after inhibitor pretreatment (primary microglia [1]): great decrease
- CREB and ERK phosphorylation after inhibitor pre-culture and 2-PF (primary microglia [2]): greatly decreased

SMILES: Cc1ccco1 [2-methylfuran]
- binding to Olfr110 (Olfr110): do not bind
- binding to Olfr111 (Olfr111): do not bind

SMILES: O=C1OC2(c3ccccc31)c1ccc(O)c(O)c1Oc1c2ccc(O)c1O [gallein]
- ROS (active oxygen) generation induced by 2-PF after inhibitor pretreatment (primary microglia [3]): similarly inhibited
